Data reported in patent publication US8742083B1, “Panel of micrornas that silence the MCL-1 gene and sensitize cancer cells to ABT-263” (AbbVie Inc., priority 2009, dated 2014).

Legend:
Assay type in all cases: cell-based, human
HCT-116 cells = test: ABT-263 sensitization, CellTiter Glo cell viability after reverse transfection of miRNA/siRNA; conditions: for sensitization of HCT-116 cells to ABT-263 (decrease in cell viability) / sensitization of HCT-116 cells to ABT-263, in words: 1 μM ABT-263, 48 hours; for sensitization of HCT-116 cells to ABT-263 (decrease in cell viability): 50 nM miRNA mimic reverse transfected; for sensitization of HCT-116 cells to ABT-263, in words: reverse transfection (miRNA 50 nM, siRNA 12.5 nM)
Description: HCT-116 and CHL1 cells were purchased from the American Type Culture Collection (ATCC) and cultured in DMEM (Invitrogen Corp., Grand Island, N.Y.) supplemented with 10% fetal bovine serum (Invitrogen) and 1% penicillin/streptomycin (Invitrogen). All cell lines were maintained in a humidified chamber at 37° C. containing 5% CO2. These cells were authenticated by morphological, cell proliferation and Mycoplasma tests recommended in the ATCC Technical Bulletin no, 8 (2007). Cells were reverse transfected at 1.5−2.5×10^4 cells/[…] in 96-well tissue culture plates. siRNA or miRNA transfection was performed using Lipofectamine 2000 according to manufacturer's instructions (Invitrogen). For Mcl-1 and Bcl-xl siRNA transfections, a final concentration of 12.5 nM siRNA was used. For miRNA transfections, a final concentration of 50 nM miRNA was used. The cells were then grown in medium without antibiotic for 2 days before harvesting. For reporter experiments, 100 ng of pcDNA3-Mcl-1-3′UTR-luciferase reporter construct (21) was included in the liposome complex mix. Forty-eight hours after transfection, cells were assayed for viability using CellTiter Glo Luminescent cell viability assay according to the manufacturer's protocol (Promega). Caspase 3/7 activity was measured using the Caspase-Glo 3/7 assay (Promega). Luciferase activity was measured using the Steady-Glo reagent according to the manufacturer's protocol (Promega).
HCT-116 cells were reverse transfected as described in Example 1 above. Three replica plates were treated with 1 μM ABT-263 in media. […] HCT-116 cells were reverse transfected with sensitizing miRNAs in the presence or absence of 1 μM ABT-263 for 48 hours. Cell viability was measured with CellTiter Glo assay. MiR-29 and miR-125 were used as positive and negative controls for this assay. miRNAs that sensitize HCT-116 cells to ABT-263 by more than 25% are shown. FIG. 1B is a bar graph showing miRNAs that sensitize CHL1 cells to ABT-263. CHL1 cells were reverse transfected with sensitizing miRNAs in the presence or absence of 1 μM ABT-263 for 48 hours. Cell viability was measured with CellTiter Glo assay. Only miRNAs that sensitize HCT-116 cells to ABT-263 by more than 25% were shown. (See FIG. 6 for the complete list of 42 miRNAs). FIG. 1C is a bar graph showing modulation of Mcl-1 protein expression by sensitizing miRNAs in CHL1 cells. CHL1 cells were reverse transfected with sensitizing miRNAs. Mcl-1 expression was measured using a Luminex-based assay as described in the Methods section.
To identify miRNAs that modulate sensitivity of cells to Bcl-2 family inhibitor ABT-263, an miRNA “sensitization” screen was performed using an miRNA mimic library in the presence of ABT-263. The screen was conducted in a colon cancer cell line HCT-116. […] Synthetic miRNA mimics were reverse transfected into HCT-116 cells in the presence or absence of ABT-263 (FIG. 4). Reverse transfection of Mcl-1 siRNA and predicted Mcl-1-targeting miRNAs sensitized HCT-116 cells to 1 μM ABT-263 after 48 hours.
HCT-116 cells were reverse transfected with a library of 810 annotated miRNA mimics in triplicate in the presence of 1 μM ABT-263 (FIG. 5A). Viability of cells was determined after 2 days. […] Z-scores were used to select candidate miRNAs for subsequent experiments. Of 810 miRNA mimics, 80 increased cell death in the presence of ABT-263. Thirty-eight of these 80 miRNAs either reduced cell viability in the absence of ABT-263 (Z←1.5) or represented mimic replicates from the screen, and therefore were not subjected to further testing. The remaining 42 miRNAs were tested in a secondary screen to assess their effect in the presence or absence of ABT-263. MiR-29 and miR-125 were used as control for this screen. […] FIG. 6A identifies miRNAs that sensitize HCT-116 cells to ABT-263. HCT-116 cells were reverse transfected with sensitizing miRNAs in the presence or absence of 1 μM ABT-263 for 48 hours. Cell viability was measured with CellTiter Glo assay. […]

CHL1 cells = test: as above; conditions: no ABT-263
Description: (§1) HCT-116 and CHL1 cells were purchased from the American Type Culture Collection (ATCC) and cultured in DMEM (Invitrogen Corp., Grand Island, N.Y.) supplemented with 10% fetal bovine serum (Invitrogen) and 1% penicillin/streptomycin (Invitrogen). All cell lines were maintained in a humidified chamber at 37° C. containing 5% CO2. These cells were authenticated by morphological, cell proliferation and Mycoplasma tests recommended in the ATCC Technical Bulletin no, 8 (2007). Cells were reverse transfected at 1.5−2.5×10^4 cells/[…] in 96-well tissue culture plates. siRNA or miRNA transfection was performed using Lipofectamine 2000 according to manufacturer's instructions (Invitrogen). […] Caspase 3/7 activity was measured using the Caspase-Glo 3/7 assay (Promega). Luciferase activity was measured using the Steady-Glo reagent according to the manufacturer's protocol (Promega).
HCT-116 cells were reverse transfected as described in Example 1 above. […] Cell viability was measured with CellTiter Glo assay. […] Cell viability was measured with CellTiter Glo assay. […] Mcl-1 expression was measured using a Luminex-based assay as described in the Methods section.
HCT-116 cells were reverse transfected with a library of 810 annotated miRNA mimics in triplicate in the presence of 1 μM ABT-263 (FIG. 5A). Viability of cells was determined after 2 days. […] Cell viability was measured with CellTiter Glo assay. […]

Mcl-1 3′-UTR = Mcl-1 3′-UTR luciferase reporter assay in HCT-116 cells; conditions: HCT-116 cells cotransfected with 100 ng reporter, 48 hours
Description: as §1
MiRNA could modulate sensitivity to ABT-263 through several mechanisms: by directly targeting the Mcl-1 gene 3′-UTR and repressing protein translation or by targeting molecules involved in regulating Mcl-1 expression or function. […] Measure was taken of the effect of two Mcl-1 siRNAs and the twelve strongest sensitizing miRNAs on the Mcl-1 protein levels in HCT-116 cells using the Mcl-1 quantitative assay described above. […] Mcl-1 protein expression was measured using the Mcl-1 Luminex assay. […]

Mcl-1 = Mcl-1 protein expression, Luminex-based assay, in HCT-116 cells; conditions: 50 nM miRNA or Mcl-1 siRNA, 48 hours
Text: The present disclosure also provides a method for determining whether an miRNA increases sensitivity of a subject to treatment with a Bcl-2 family inhibitor. The method includes a) reverse transfecting a population of cancer cells with the candidate miRNA; b) contacting the cells with an effective amount of the Bcl-2 family inhibitor, and c) determining Mcl-1 expression level in the cells, wherein a decrease in Mcl-1 expression is indicative that the miRNA increases sensitivity of the subject to treatment with the Bcl-2 family inhibitor. Mcl-1 protein expression can be measured using a liquid phase immunoassay using Luminex beads. In brief, an Mcl-1 capture antibody is conjugated to Luminex beads (bead region 9) and an Mcl-1 detection antibody conjugated to biotin. […] Cell assay buffer is added after filtering and the plate is read using a Luminex 200 station. […]
Mcl-1 protein expression was measured using a new Mcl-1 assay based on the Luminex technology. […] Cell assay buffer was added after filtering and the plate was read using a Luminex 200 station. The liquid-phase quantitative protein assay was used to measure the levels of Mcl-1 in cells. […] Using this new Mcl-1 quantitative assay, the effect of these miRNAs on the Mcl-1 protein levels in CHL1 cells was measured. […]

CC1(C)CCC(c2ccc(Cl)cc2)=C(CN2CCN(c3ccc(C(=O)NS(=O)(=O)c4ccc(N[C@H](CCN5CCOCC5)CSc5ccccc5)c(S(=O)(=O)C(F)(F)F)c4)cc3)CC2)C1 [ABT-263, N-(4-(4-((2-(4-chlorophenyl)-5,5-dimethyl-1-cyclohex-1-en-1-yl)methyl)pip-erazin-1-yl)benzoyl)-4-(((1R)-3-(morpholin-4-yl)-1-((phenylsulfanyl)methyl-)propyl)amino)-3-((trifluoromethyl)sulfonyl)benzenesulfonamide]
effect of ABT-263 alone on HCT-116 cell viability (HCT-116 cells; in the presence of the control siRNA and miRNA): ≤ 25%

miR-193a: sensitizing human miRNA, sequence AACUGGCCUACAAAGUCCCAGU (listed as RNA, chemistry not given here)
sensitization of HCT-116 cells to ABT-263 (decrease in cell viability) (HCT-116 cells): ~50%

Mcl-1 siRNA: Mcl-1 targeting siRNA, sequence GCATCGAACCATTAGCAGATT (listed as DNA, chemistry not given here)
sensitization of HCT-116 cells to ABT-263, in words (HCT-116 cells): significantly sensitize | HCT-116 cell viability after transfection in the absence of ABT-263 (HCT-116 cells; no ABT-263): would not affect cell viability | CHL1 cell viability after transfection in the absence of ABT-263 (CHL1 cells): affected CHL1 cell viability

miR-605: sensitizing human miRNA, sequence UAAAUCCCAUGGUGCCUUCUCCU (listed as RNA, chemistry not given here)
luciferase activity of Mcl-1 3′-UTR reporter (Mcl-1 3′-UTR): did not reduce the luciferase activity | Mcl-1 protein expression in HCT-116 cells (Mcl-1): affected the Mcl-1 protein expression

miR-744*: sensitizing human miRNA, sequence CUGUUGCCACUAACCUCAACCU (listed as RNA, chemistry not given here)
luciferase activity of Mcl-1 3′-UTR reporter (Mcl-1 3′-UTR): did not reduce the luciferase activity | Mcl-1 protein expression in HCT-116 cells (Mcl-1): affected the Mcl-1 protein expression

miR-125: control miRNA (negative control), sequence UCCCUGAGACCCUUUAACCUGUGA (listed as RNA, chemistry not given here)
sensitization of HCT-116 cells to ABT-263, in words (HCT-116 cells): did not sensitize

miR-29: control miRNA (positive control), sequence UAGCACCAUUUGAAAUCAGUGUU (listed as RNA, chemistry not given here)
sensitization of HCT-116 cells to ABT-263, in words (HCT-116 cells): much weaker

miR-153: sensitizing human miRNA, sequence UUGCAUAGUCACAAAAGUGAUC (listed as RNA, chemistry not given here)
sensitization of HCT-116 cells to ABT-263 (decrease in cell viability) (HCT-116 cells): ~50%
